Among the data in PubChem BioAssay (NCI) are TGI and GI50 values, retold here.

Holding throughout (test): NCI-60 cell line screen, 48 h
Test [1] deals with OVCAR-5 ovarian.
The subject of test [2] is EKVX NSCLC.
For test [3], the system named is HCT-15 colon.
Test [4] deals with HOP-62 NSCLC.
Test [5] concerns RXF 393 renal.
The subject of test [6] is SF-539 CNS.
The subject of test [7] is UO-31 renal.
For test [8], the system named is A549 NSCLC.
In test [9] the test system is DU-145 prostate.
The test system of test [10] is MDA-MB-435.

Each structure is given as a SMILES string.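 Growth conditions: 96-well plates. Treatment: test compound, 48 hours, 5 concentrations. Analysis: linear interpolation between bracketing concentrations; unreached endpoints set to highest concentration. Abbreviation: GI50, concentration required for 50% inhibition of growth. TGI: concentration producing complete growth inhibition.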 Some results are limits rather than exact numbers.

As to `O=C(NNC(=O)/C(=C/c1cccc([N+](=O)[O-])c1)NC(=O)c1ccccc1)Nc1ccc(Cl)cc1`, the TGI in [1] came to 32.4 µM; in test [2], 44 µM; in test [3], 24.7 µM; in test [4], 29.6 µM; in [5], 25.6 µM; in [6], 35.1 µM. In addition, the values for the TGI in test [7] and in test [8] were 27.3 µM and 31.4 µM, respectively.

As to `Cc1cc(NCCCCCCCCNc2cc(C)nc3cc(N(C)C)ccc23)c2ccc(N(C)C)cc2n1`, the TGI in test [2] is 28.5 µM; in test [3] it was more than 100 µM; in [4] it was 29 µM; in test [5], 28.7 µM; in [7] it was more than 100 µM; in test [8] it was 21.8 µM.

As for `O=C(Nc1cccc(Cl)c1)Nc1cc(C(F)(F)F)ccc1Cl`, the GI50 was 3.17 µM in test [1]; 2.66 µM in test [3]; 2.72 µM in test [4]; 1.12 µM in test [5]; 3.18 µM in [6]; 2.95 µM in [9]. Besides, the GI50 in [8] was 2.72 µM. The TGI in test [1] was 12.7 µM; in test [3] it was 11.5 µM; in test [4] it was 9.23 µM; in [5] it was 3.95 µM; in test [6], 11.4 µM; in test [9], 10.2 µM. In test [8], this molecule registered a TGI of 8.98 µM.

On to `O=S1(=O)CC#CC[C@@H](CO)[C@@H](CO)CC#CC1`, for which the TGI in test [1], in test [2], in [3], in [4], in test [5] and in test [6] was more than 100 µM throughout. Moreover, the TGI in test [7] and in test [8] was more than 100 µM in each case.

On to `CCCCCCCCCCCCCC(=O)OCC1OC(=O)C(O)C1O` (stereo not drawn), for which the TGI in test [1], in test [2], in test [4], in [6], in test [7] and in test [8] was more than 100 µM throughout.

In the case of `COC(=O)/C(=C1\OC(=O)C(c2ccc(Cl)cc2)=C1O)c1ccc(Cl)cc1`, the TGI is 79.5 µM in test [1]; 72.5 µM in [2]; 41.4 µM in [4]; 63 µM in test [5]; 67.7 µM in test [6]; 68.9 µM in test [7]. Moreover, the TGI in [8] was determined as 84.3 µM.

As for `CCN(CC(O)COc1ccc2c(c1)[n+]([O-])nc(N)[n+]2[O-])C(C)=O` (stereo not drawn), the TGI in [1], in [2], in [3], in test [4], in test [6] and in [7] was more than 100 µM in each case. The TGI in test [9], in test [10] and in test [8] was more than 100 µM each time.

Take `O=S1c2ccccc2N=C(c2cccs2)CC1c1ccccc1O` (stereo not drawn): the TGI in test [1], in [2], in test [3], in test [4], in [5] and in test [6] was more than 100 µM each time. Besides, the TGI in test [7] and in test [8] was more than 100 µM each time.

Consider `Clc1cc2ns[s+]c2cc1Cl`, for which the TGI in test [1] was more than 100 µM; in test [2] it was more than 100 µM; in test [3], more than 100 µM; in [4] it was more than 81.7 µM; in test [5], more than 100 µM; in test [6] it was more than 100 µM. For the same molecule, the TGI in [7] was more than 91.7 µM; in test [8], more than 100 µM.

For `O=c1[nH]c(C2CCCCC2)nc2ccc(Cl)cc12`, the TGI in [1], in test [2], in test [3], in test [5], in test [6] and in test [7] was more than 100 µM throughout. Moreover, the TGI in test [8] is more than 100 µM.

For `CCn1c(C)nc([N+](=O)[O-])c1Sc1ncc[nH]1`, the TGI in test [1], in test [2], in test [4], in test [6], in [7] and in test [8] was more than 100 µM throughout.

`COc1ccc(NC(=O)CC2SC(=Nc3ccc(Cl)cc3C)NC2=O)c([N+](=O)[O-])c1` (stereo not drawn): the TGI in test [1], in [2], in [3], in test [5], in test [6] and in test [7] was more than 100 µM each time. In test [8], this molecule returned a TGI of more than 100 µM.

With `Cc1ccccc1C1SCc2nc3ccccc3n21` (stereo not drawn), the TGI in test [1], in test [2], in test [5], in [6], in [7] and in [8] was more than 100 µM throughout.

For `COC(=O)C1(N2CCOCC2)CCC([C@@H](c2ccccc2)C(C)[N+](=O)[O-])C1` (stereo partly drawn), the TGI in test [1], in [2], in [3], in test [4], in [6] and in test [7] was more than 100 µM in each case. In addition, the TGI was 59.6 µM in test [9], more than 100 µM in test [10] and more than 100 µM in test [8].

Take `c1ccc2cc(Cn3c(-c4cccc5ccccc45)[n+](Cc4ccc5ccccc5c4)c4c5ccccc5c5ccccc5c43)ccc2c1`: the GI50 in [1] was 0.378 µM; in [2], 0.268 µM; in test [3], 0.398 µM; in [4], 0.387 µM; in test [9], 0.413 µM; in [10], 0.359 µM. Also, the TGI in test [1] is 1.68 µM; in test [2], 1.66 µM; in test [3], 1.88 µM; in test [4], 2.45 µM; in [9], 1.68 µM; in test [10], 1.38 µM.

For `CC1=NN(c2ccccc2)C(=O)C1N=Nc1ccc(Br)cc1C` (stereo not drawn), the TGI in test [1], in test [2], in test [3], in [4], in [5] and in test [6] was more than 100 µM each time. For the same molecule, in test [8], the TGI is more than 100 µM.
